Test results: paper PMC7849821, “The deubiquitylase USP9X controls ribosomal stalling” (The Journal of Cell Biology, 2021)

Experiments:
CEP55 = assay: MSD ELISA assay for CEP55 reduction in BxPC3 cells; type: cell-based; conditions: Homo sapiens, BXPC-3, BxPC3 pancreatic cancer cells, 6 h exposure, read-out: IC50 for modulation (reduction) of CEP55 expression
Method: BxPC3 cells were seeded in 96-well plates and exposed to FT709 (20 µM top concentration, 1:2 serial dilutions) for 6 h. Cell lysates were prepared in RIPA buffer and stored at −80°C until analysis. Samples were analyzed by an MSD ELISA assay (Pacific Biolabs) using a CEP55 antibody (Novux; 1:500 dilution in PBS) captured overnight at 4°C, 30 µl lysates per well, 30 µl of CEP55 antibody (CST; 81693) diluted 1:2,000 in 1% blocker A/PBS and 30 µl per well of a 1:4,000 diluted goat anti-rabbit sulfo-tag, 1% blocker A/PBS. Plates were read on a MSD Sector Imager 2400. Results were transformed as percentage DMSO controls and curves fitted using a nonlinear regression to determine the IC50. Results presented are based on duplicate values.

USP25 = USP25 (Homo sapiens, UniProt Q9UHP3); assay: DUB biochemical assay (Ub-rhodamine cleavage); conditions: Ub-rhodamine substrate, DUB panel Fig. S2 A
Chain of USP25 (Q9UHP3 whole entry, species assumed): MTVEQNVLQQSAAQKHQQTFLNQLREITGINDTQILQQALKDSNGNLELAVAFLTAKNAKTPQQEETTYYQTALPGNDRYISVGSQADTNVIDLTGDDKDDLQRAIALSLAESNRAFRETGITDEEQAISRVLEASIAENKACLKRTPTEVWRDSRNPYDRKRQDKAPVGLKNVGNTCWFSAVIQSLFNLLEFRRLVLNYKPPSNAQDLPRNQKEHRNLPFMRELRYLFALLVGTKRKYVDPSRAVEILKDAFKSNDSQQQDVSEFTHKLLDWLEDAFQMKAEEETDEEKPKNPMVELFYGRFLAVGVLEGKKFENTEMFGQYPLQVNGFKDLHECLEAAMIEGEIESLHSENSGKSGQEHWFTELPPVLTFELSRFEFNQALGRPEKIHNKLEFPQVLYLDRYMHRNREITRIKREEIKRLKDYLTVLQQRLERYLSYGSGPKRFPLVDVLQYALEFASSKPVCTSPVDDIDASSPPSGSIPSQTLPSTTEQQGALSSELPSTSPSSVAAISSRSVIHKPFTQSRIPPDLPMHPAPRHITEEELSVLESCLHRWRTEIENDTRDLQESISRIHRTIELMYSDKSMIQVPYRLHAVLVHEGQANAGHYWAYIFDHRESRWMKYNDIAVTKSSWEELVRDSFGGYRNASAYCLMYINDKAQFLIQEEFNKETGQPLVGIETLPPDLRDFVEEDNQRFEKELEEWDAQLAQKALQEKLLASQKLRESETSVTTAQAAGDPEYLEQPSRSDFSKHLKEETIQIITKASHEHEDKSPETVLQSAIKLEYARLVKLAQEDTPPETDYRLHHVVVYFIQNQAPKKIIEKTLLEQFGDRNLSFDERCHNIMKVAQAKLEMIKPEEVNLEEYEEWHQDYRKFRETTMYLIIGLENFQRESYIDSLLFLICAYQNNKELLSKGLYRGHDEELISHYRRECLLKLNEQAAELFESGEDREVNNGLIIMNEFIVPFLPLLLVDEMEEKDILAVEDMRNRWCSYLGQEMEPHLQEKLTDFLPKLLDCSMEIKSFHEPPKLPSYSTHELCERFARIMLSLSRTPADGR
Method: (§1) The assay was performed in a final volume of 6 µl in assay buffer containing 20 mM Tris buffer, pH 8, 0.03% bovine γ-globulin, 0.01% Triton X-100, and 1 mM glutathione. Nanoliter quantities of 10-point, threefold serial dilutions in DMSO were predispensed into 1,536 assay plates for a final top concentration between […] and subsequent half-log dilutions. 2× DUB (0.025 nM final concentration) was added and preincubated for 30 min at room temperature. 2× ubiquitin (Ub)-rhodamine (25 nM final concentration) was added to initiate the reaction. Fluorescence readings (excitation: 485 nm, emission: 535 nm) were acquired over 12 min (Envision reader). The slope of the data from each point was used to determine IC50.
(§2) For all assays, data were reported as percent inhibition compared with control wells. IC50 values were determined by curve fitting of the standard four-parameter logistic fitting algorithm included in the Activity Base software package IDBS XE Designer Model205. Data were fitted using the Levenburg–Marquardt algorithm.

USP10 = USP10 (Homo sapiens, UniProt Q14694); assay: DUB biochemical assay (Ub-rhodamine cleavage); conditions: Ub-rhodamine substrate, DUB panel Fig. S2 A
Method: as §1, §2

USP2 = USP2 (Homo sapiens, UniProt O75604); assay: DUB biochemical assay (Ub-rhodamine cleavage); conditions: Ub-rhodamine substrate, DUB panel Fig. S2 A
Chain of USP2 (O75604 whole entry, species assumed): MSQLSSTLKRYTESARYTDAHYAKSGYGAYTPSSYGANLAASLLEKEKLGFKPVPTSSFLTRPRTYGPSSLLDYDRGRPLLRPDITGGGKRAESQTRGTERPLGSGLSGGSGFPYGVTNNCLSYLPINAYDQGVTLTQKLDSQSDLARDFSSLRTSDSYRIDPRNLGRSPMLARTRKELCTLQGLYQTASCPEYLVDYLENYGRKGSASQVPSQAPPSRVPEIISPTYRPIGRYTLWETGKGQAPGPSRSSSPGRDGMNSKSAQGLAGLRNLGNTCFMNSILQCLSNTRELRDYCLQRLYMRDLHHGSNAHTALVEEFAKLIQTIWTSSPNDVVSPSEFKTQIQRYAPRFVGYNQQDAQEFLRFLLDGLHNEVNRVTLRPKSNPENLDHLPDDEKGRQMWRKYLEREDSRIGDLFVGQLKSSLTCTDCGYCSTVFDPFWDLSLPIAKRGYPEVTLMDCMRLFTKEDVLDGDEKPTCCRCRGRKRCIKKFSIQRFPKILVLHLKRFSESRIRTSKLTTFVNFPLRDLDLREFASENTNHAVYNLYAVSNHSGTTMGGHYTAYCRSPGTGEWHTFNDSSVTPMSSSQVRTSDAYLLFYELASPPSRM
Method: as §1, §2

USP15 = USP15 (Homo sapiens, UniProt Q9Y4E8); assay: DUB biochemical assay (Ub-rhodamine cleavage); conditions: Ub-rhodamine substrate, DUB panel Fig. S2 A
Method: as §1, §2

USP4 = USP4 (Homo sapiens, UniProt Q13107); assay: DUB biochemical assay (Ub-rhodamine cleavage); conditions: Ub-rhodamine substrate, DUB panel Fig. S2 A
Method: as §1, §2

USP22 = USP22 (Homo sapiens, UniProt Q9UPT9); assay: DUB biochemical assay (Ub-rhodamine cleavage); conditions: Ub-rhodamine substrate, DUB panel Fig. S2 A
Method: as §1, §2

USP47 = USP47 (Homo sapiens, UniProt Q96K76); assay: DUB biochemical assay (Ub-rhodamine cleavage); conditions: Ub-rhodamine substrate, DUB panel Fig. S2 A
Method: as §1, §2

USP1 = USP1 (Homo sapiens, UniProt O94782); assay: DUB biochemical assay (Ub-rhodamine cleavage); conditions: Ub-rhodamine substrate, DUB panel Fig. S2 A
Chain of USP1 (O94782 whole entry, species assumed): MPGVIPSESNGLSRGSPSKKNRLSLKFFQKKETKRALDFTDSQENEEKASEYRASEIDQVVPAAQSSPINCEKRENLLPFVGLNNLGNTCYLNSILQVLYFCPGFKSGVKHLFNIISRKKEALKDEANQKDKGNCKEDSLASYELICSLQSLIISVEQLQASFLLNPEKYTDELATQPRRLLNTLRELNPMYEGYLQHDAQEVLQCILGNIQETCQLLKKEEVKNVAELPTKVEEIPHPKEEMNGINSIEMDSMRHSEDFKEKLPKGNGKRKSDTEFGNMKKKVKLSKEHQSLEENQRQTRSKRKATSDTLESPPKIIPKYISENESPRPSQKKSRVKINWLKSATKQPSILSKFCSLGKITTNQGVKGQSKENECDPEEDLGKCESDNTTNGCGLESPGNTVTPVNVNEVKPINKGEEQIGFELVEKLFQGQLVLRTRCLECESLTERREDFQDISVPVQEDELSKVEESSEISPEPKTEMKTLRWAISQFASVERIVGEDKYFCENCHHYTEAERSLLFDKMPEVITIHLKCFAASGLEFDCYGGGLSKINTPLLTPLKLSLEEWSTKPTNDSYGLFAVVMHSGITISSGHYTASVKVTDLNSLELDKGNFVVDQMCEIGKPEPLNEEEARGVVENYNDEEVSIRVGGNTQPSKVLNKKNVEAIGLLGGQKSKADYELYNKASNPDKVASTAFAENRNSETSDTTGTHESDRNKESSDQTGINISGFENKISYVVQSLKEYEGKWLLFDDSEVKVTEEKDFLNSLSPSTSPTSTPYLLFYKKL
Chain of USP1 (Q8TAF3 whole entry partner, species assumed): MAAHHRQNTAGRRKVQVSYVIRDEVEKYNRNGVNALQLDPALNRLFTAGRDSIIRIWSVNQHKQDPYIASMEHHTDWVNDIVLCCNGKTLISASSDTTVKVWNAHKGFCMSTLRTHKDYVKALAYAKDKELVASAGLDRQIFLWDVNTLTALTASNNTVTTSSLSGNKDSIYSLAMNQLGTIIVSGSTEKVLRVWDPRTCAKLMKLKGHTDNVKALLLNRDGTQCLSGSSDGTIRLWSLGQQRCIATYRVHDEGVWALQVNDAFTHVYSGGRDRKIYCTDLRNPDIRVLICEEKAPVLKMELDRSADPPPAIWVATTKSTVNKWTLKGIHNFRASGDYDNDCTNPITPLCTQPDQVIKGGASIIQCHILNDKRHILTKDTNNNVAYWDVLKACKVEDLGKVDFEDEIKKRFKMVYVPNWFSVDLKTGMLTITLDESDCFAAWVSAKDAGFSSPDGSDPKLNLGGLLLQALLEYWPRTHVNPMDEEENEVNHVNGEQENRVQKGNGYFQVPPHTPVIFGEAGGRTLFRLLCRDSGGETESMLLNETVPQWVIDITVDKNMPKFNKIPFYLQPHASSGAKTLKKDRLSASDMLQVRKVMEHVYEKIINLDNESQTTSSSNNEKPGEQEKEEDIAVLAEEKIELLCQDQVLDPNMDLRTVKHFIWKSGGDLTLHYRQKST
Method: as §1, §2

USP5 = USP5 (Homo sapiens, UniProt P45974); assay: DUB biochemical assay (Ub-rhodamine cleavage); conditions: Ub-rhodamine substrate, DUB panel Fig. S2 A
Method: as §1, §2

USP24 = USP24 (Homo sapiens, UniProt Q9UPU5); assay: DUB biochemical assay (Ub-rhodamine cleavage); conditions: Ub-rhodamine substrate, DUB panel Fig. S2 A
Method: as §1, §2

USP12 = USP12 (Homo sapiens, UniProt O75317); assay: DUB biochemical assay (Ub-rhodamine cleavage); conditions: Ub-rhodamine substrate, DUB panel Fig. S2 A
Method: as §1, §2

USP33 = USP33 (Homo sapiens, UniProt Q8TEY7); assay: DUB biochemical assay (Ub-rhodamine cleavage); conditions: Ub-rhodamine substrate, DUB panel Fig. S2 A
Method: as §1, §2

USP7 = USP7 (Homo sapiens, UniProt Q93009); assay: DUB biochemical assay (Ub-rhodamine cleavage); conditions: Ub-rhodamine substrate, DUB panel Fig. S2 A
Chain of USP7 (Q93009 whole entry, species assumed): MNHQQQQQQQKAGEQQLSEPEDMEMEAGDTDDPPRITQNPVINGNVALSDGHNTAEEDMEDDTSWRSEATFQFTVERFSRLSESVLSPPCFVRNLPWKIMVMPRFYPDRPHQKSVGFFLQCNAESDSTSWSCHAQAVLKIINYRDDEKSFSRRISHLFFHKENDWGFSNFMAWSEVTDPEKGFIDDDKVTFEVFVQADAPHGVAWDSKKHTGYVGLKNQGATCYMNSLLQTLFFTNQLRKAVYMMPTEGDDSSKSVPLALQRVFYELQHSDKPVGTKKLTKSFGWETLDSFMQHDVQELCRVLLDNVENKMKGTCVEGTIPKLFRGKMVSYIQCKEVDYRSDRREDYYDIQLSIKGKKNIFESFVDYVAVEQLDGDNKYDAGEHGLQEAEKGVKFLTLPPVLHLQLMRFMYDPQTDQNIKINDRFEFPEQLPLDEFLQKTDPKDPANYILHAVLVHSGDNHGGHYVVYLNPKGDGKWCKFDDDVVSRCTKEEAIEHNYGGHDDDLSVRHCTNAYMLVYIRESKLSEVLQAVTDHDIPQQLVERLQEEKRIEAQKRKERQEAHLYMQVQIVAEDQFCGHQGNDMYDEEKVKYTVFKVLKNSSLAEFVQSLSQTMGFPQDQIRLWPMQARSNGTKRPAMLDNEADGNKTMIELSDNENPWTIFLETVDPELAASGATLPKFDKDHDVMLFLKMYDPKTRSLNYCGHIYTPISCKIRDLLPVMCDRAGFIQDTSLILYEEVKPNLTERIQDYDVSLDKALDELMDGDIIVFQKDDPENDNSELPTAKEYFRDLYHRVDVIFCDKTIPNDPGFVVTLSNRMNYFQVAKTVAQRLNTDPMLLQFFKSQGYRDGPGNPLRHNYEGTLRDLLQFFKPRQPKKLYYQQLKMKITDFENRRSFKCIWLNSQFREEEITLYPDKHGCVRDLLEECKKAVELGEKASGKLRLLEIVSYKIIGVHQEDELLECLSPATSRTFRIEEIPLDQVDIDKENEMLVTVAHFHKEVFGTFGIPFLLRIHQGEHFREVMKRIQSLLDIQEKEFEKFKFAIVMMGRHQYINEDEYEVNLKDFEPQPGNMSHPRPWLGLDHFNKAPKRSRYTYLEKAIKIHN
Method: as §1, §2

USP18 = USP18 (Homo sapiens, UniProt Q9UMW8); assay: DUB biochemical assay (Ub-rhodamine cleavage); conditions: Ub-rhodamine substrate, DUB panel Fig. S2 A
Method: as §1, §2

USP36 = USP36 (Homo sapiens, UniProt Q9P275); assay: DUB biochemical assay (Ub-rhodamine cleavage); conditions: Ub-rhodamine substrate, DUB panel Fig. S2 A
Method: as §1, §2

USP37 = USP37 (Homo sapiens, UniProt Q86T82); assay: DUB biochemical assay (Ub-rhodamine cleavage); conditions: Ub-rhodamine substrate, DUB panel Fig. S2 A
Method: as §1, §2

USP28 = USP28 (Homo sapiens, UniProt Q96RU2); assay: DUB biochemical assay (Ub-rhodamine cleavage); conditions: Ub-rhodamine substrate, DUB panel Fig. S2 A
Method: as §1, §2

USP11 = USP11 (Homo sapiens, UniProt P51784); assay: DUB biochemical assay (Ub-rhodamine cleavage); conditions: Ub-rhodamine substrate, DUB panel Fig. S2 A
Method: as §1, §2

USP8 = USP8 (Homo sapiens, UniProt P40818); assay: DUB biochemical assay (Ub-rhodamine cleavage); conditions: Ub-rhodamine substrate, DUB panel Fig. S2 A
Method: as §1, §2

USP13 = USP13 (Homo sapiens, UniProt Q92995); assay: DUB biochemical assay (Ub-rhodamine cleavage); conditions: Ub-rhodamine substrate, DUB panel Fig. S2 A
Chain of USP13 (Q92995 whole entry, species assumed): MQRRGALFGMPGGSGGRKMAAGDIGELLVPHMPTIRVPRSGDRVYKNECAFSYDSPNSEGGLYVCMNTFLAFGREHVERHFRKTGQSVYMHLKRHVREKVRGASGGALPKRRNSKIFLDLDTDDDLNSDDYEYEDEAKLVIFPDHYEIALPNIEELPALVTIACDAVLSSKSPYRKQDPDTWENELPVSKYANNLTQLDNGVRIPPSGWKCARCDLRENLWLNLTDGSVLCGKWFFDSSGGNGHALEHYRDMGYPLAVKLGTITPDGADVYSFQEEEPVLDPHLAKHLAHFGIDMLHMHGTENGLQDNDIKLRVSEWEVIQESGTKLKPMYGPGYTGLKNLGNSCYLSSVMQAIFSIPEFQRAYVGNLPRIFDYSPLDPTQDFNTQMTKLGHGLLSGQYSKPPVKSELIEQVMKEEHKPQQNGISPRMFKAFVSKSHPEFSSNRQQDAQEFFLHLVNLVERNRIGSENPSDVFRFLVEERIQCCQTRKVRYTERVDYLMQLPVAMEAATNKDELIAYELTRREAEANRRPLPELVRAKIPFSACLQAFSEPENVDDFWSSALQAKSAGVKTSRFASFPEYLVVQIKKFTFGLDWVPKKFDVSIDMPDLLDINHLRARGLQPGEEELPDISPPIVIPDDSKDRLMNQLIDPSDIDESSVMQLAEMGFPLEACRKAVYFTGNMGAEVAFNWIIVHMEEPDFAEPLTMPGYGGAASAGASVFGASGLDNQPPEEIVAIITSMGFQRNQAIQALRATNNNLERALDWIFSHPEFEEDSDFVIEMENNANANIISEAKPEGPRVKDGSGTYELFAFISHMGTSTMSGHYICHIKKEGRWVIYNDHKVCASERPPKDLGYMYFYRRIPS
Method: as §1, §2

ZNF598 = assay: Immunoblot of ZNF598 in FT709-treated HCT116 cells; type: cell-based; conditions: 10 µM, 4 or 24 h
Method: (§3) Cultured cells were lysed for 10 min at 4°C in RIPA buffer (10 mM Tris-HCl, pH 7.5, 150 mM NaCl, 1% Triton X-100, 0.1% SDS, and 1% sodium deoxycholate) supplemented with mammalian protease inhibitor cocktail (Sigma-Aldrich). Proteins were resolved using SDS-PAGE (Invitrogen NuPage gel 4–12%), transferred to nitrocellulose membrane, blocked in 5% fat-free milk or 5% bovine serum albumin in TBS supplemented with Tween-20, and probed with primary antibodies overnight. Visualization and quantification of Western blots were performed using IRdye 800CW and 680LT coupled secondary antibodies and an Odyssey infrared scanner (LI-COR Biosciences).

ZNF598 and MKRN2 = assay: Immunoblot of FT709 responsive markers in A549 and U2OS cells; type: cell-based; conditions: 10 µM
Method: as §3

[1] = system: HEK293 Flp-In T-Rex GFP-P2A-(KAAA)21-P2A-RFP WT cells; assay: Fluorescent ribosomal stalling reporter, FACS RFP:GFP ratio; type: cell-based; conditions: 10 µM for 72 h
Text: The HEK293 cells used in this study (HEK293-Flp-In TREX GFP-P2A-[K^AAA]21 -P2A-RFP) have been engineered to express a reporter system for terminal ribosomal stalling ([Juszkiewicz and Hegde, 2017]). The reporter cassette contains GFP (N-terminal) and RFP (C-terminal) separated by a FLAG-tagged stalling reporter (SR) incorporating a polyA stretch of twenty-one codons (K^AAA)21 (Fig. 5 B). This is flanked by viral P2A sequences, at which ribosomes skip formation of a peptide bond, without interrupting translation elongation. Consequently, unimpaired translation generates 3 proteins (GFP, FLAG-SR, RFP) in equal amounts. Stalling at the FLAG-SR aborts translation before RFP synthesis, leading to a substoichiometric RFP:GFP ratio. Failure to effectively respond to stalled ribosomes allows eventual read-through and a consequent rise in the RFP:GFP ratio that can be assessed by fluorescence-activated cell sorting (Fig. 5 B, schematic diagram; [Juszkiewicz and Hegde, 2017]). […] We also analyzed three of the cell populations treated with individual gRNAs as represented in Fig. 5 A that show varying effectiveness for USP9X depletion. […] We propose that USP9X inhibition may promote read-through by a combined effect on each of these RING E3 ligases linked to the ribosomal quality control pathway. […]

HCT116 cells = assay: SILAC-based proteome analysis of FT709-treated HCT116 cells; type: cell-based; conditions: 10 µM, 24 h
Method: HCT116 cells were grown in SILAC DMEM supplemented with 10% dialyzed FBS (Dundee Cell Products) at 37°C and 5% CO2. To generate light, medium, and heavy stable isotope-labeled cells, arginine- and lysine-free DMEM medium was supplemented with 200 mg/liter L-proline and either L-lysine (Lys0) together with L-arginine (Arg0; light), L-lysine-^2H4 (Lys4) with L-arginine-U-^13C6 (Arg6; medium), or L-lysine-U-^13C6-^15N2 (Lys8) with L-arginine-U-^13C6-^15N4 (Arg10; heavy) at final concentrations of 84 mg/liter for the arginine and 146 mg/liter for the lysine until fully metabolically labeled. […] Relative protein concentrations of the lysates were determined using a bicinchoninic acid assay (Thermo Fisher Scientific), and light-, medium-, and heavy-labeled lysates were combined in a 1:1:1 ratio.
Protein extracts (1.2–1.5 mg) containing SDS were reduced with 5 mM dithiothreitol, alkylated with 20 mM iodoacetamide, and then subjected to methanol/chloroform extraction. […] Peptide fractions were analyzed in technical replicates by nano-UPLC-MS/MS using a Dionex Ultimate 3000 nano UPLC with EASY spray column (75 µm × 500 mm, 2 µm particle size; Thermo Fisher Scientific) with a 60-min gradient of 2% acetonitrile/0.1% formic acid/5% DMSO to 35% acetonitrile/0.1% formic acid/5% DMSO at a flow rate of ∼250 nl/min. […]

ZNF598, MKRN1 and MKRN2 = assay: Immunoblot of ZNF598 and Makorins in FT709-treated (KAAA)21 WT cells; type: cell-based; conditions: (KAAA)21 WT HEK293 cells, indicated concentrations for 48 h
Method: as §3

Cc1nc2c(C(O)C(=O)N3CC4=C(C3)CN(S(=O)(=O)c3cnc5c(c3)OCCO5)C4)cccc2o1 (centres unmarked) [FT709]
IC50 (CEP55): 0.131 µM | IC50 (USP25): > 26.7 µM | IC50 (USP10): > 33.3 µM | IC50 (USP2): > 26.7 µM | IC50 (USP15): > 26.7 µM | IC50 (USP4): > 33.3 µM | IC50 (USP22): > 26.7 µM | IC50 (USP47): > 33.3 µM | IC50 (USP1): > 25.8 µM | IC50 (USP5): > 33.3 µM | IC50 (USP24): > 26.7 µM | IC50 (USP12): > 33.3 µM | IC50 (USP33): > 26.7 µM | IC50 (USP7): > 25.8 µM | IC50 (USP18): > 27.9 µM | IC50 (USP36): > 26.7 µM | IC50 (USP37): > 33.3 µM | IC50 (USP28): > 26.7 µM | IC50 (USP11): > 33.3 µM | IC50 (USP8): > 25 µM | IC50 (USP13): > 26.7 µM | ZNF598 protein level (ZNF598): reduction of ZNF598 | FT709-dependent loss of ZNF598 versus MKRN2 (ZNF598 and MKRN2): loss of ZNF598 is minor compared with MKRN2 | polyA read-through (RFP:GFP ratio) [1]: recapitulate polyA read-through | Protein abundance change in SILAC proteomic datasets (HCT116 cells): de-enrichment of ZNF598 and MKRN2 | ZNF598, MKRN1 and MKRN2 protein levels (ZNF598, MKRN1 and MKRN2): smaller reduction in ZNF598 levels but was again accompanied by parallel reductions in MKRN1 and 2
